Source: PMC7252906 (Toxicology and applied pharmacology, 2019)
Values joined by “and” are separate entries in the source; they are usually repeats but may differ in a detail not shown here. Equal entries are not always repeated. Where two headings read alike, the source gives them in different places.

How the values were obtained:
[1] = Incorporation of [^14C]DMAE-derived radioactivity in tissue lipids; assay type: in vivo, Wistar Han rats; details: gavage 100 mg/kg, 2 h; for Radioactivity in tissue lipids (% dose administered) / Total radioactivity in tissue lipids: male rats
[2] = Disposition of DMAE after gavage, rats and mice summarised together; assay type: in vivo, Wistar Han rats and B6C3F1 mice; details: range over groups
[3] = Disposition of [^14C]DMAE after single gavage administration, strain comparison; assay type: in vivo; details: male Sprague Dawley rats, gavage 500 mg/kg, 24 h
[4] = Effect of DMAE on serum choline levels and conversion of DMAE to choline; assay type: in vivo, Wistar Han rats; details: male rats, gavage 500 mg/kg [^14C]DMAE, 1 h post-dose (remained up to 12 h); pre-dose approximately 17 ng/mL
[5] = female B6C3F1 mice, gavage 500 mg/kg, 72 h
[6] = male B6C3F1 mice, gavage 500 mg/kg, 24 h

CN(C)CCO [DMAE, Dimethylaminoethanol]
% Dose Recovered, Urine (female B6C3F1 mice, gavage 500 mg/kg, 24 h, listed as [^14C]DMAE, 500 mg/kg): 43 % dose and 43.4 ± 11.5 % dose
% Dose Recovered, CO2 [5]: 21.0 ± 2.20 % dose
% Dose Recovered, Feces [5]: 2.24 ± 1.31 % dose
% Dose Recovered, Tissues and GI Tract (includes contents) [5]: 19.0 ± 3.70 % dose
% Dose Recovered, Total Recovered [5]: 97.2 ± 6.40 % dose
% Dose Recovered, Urine [5]: 53.8 ± 3.90 % dose
% Dose Recovered, VOCs [5]: 1.08 ± 0.190 % dose
total administered dose recovered in tissues [5]: 16%
radioactivity in feces and VOCs (female B6C3F1 mice, gavage, across all dose groups): < 2%
% Dose Recovered, CO2 [6]: 17.8 ± 1.10 % dose
% Dose Recovered, Feces [6]: 13.7 ± 14.9 % dose
% Dose Recovered, Tissues and GI Tract (includes contents) [6]: 31.8 ± 1.50 % dose
% Dose Recovered, Total Recovered [6]: 92.1 ± 13.6 % dose
% Dose Recovered, Urine [6]: 27.1 ± 20.0 % dose
% Dose Recovered, VOCs [6]: 1.75 ± 0.319 % dose
excretion in urine (mice, gavage, range over groups): 16–43%
excreted as exhaled CO2 (mice, range over groups): 13–22%
total percentage of administered dose recovered (mouse studies, range over groups): 82–99%
highest level of radioactivity incorporated into lipids in any tissues ([1]; male Wistar Han rats): ~ 1 % of the administered dose
Radioactivity in tissue lipids (% dose administered) ([1]; Brain, Fatty Acids): 0.020 % dose
Total radioactivity in tissue lipids ([1]; Brain, Fatty Acids): 34
Radioactivity in tissue lipids (% dose administered) ([1]; Brain, Neutral Lipids): 0.075 % dose
Total radioactivity in tissue lipids ([1]; Brain, Neutral Lipids): 107
Radioactivity in tissue lipids (% dose administered) ([1]; Brain, Phospholipids): 0.097 % dose
Total radioactivity in tissue lipids ([1]; Brain, Phospholipids): 167
Radioactivity in tissue lipids (% dose administered) ([1]; Heart, Fatty Acids): 0.010 % dose
Total radioactivity in tissue lipids ([1]; Heart, Fatty Acids): 17
Radioactivity in tissue lipids (% dose administered) ([1]; Heart, Neutral Lipids): 0.028 % dose
Total radioactivity in tissue lipids ([1]; Heart, Neutral Lipids): 40
Radioactivity in tissue lipids (% dose administered) ([1]; Heart, Phospholipids): 0.188 % dose
Total radioactivity in tissue lipids ([1]; Heart, Phospholipids): 323
Radioactivity in tissue lipids (% dose administered) ([1]; Kidney, Fatty Acids): 0.047 % dose
Total radioactivity in tissue lipids ([1]; Kidney, Fatty Acids): 81
Radioactivity in tissue lipids (% dose administered) ([1]; Kidney, Neutral Lipids): 0.029 % dose
Total radioactivity in tissue lipids ([1]; Kidney, Neutral Lipids): 41
Radioactivity in tissue lipids (% dose administered) ([1]; Kidney, Phospholipids): 0.771 % dose
Total radioactivity in tissue lipids ([1]; Kidney, Phospholipids): 1322
Radioactivity in tissue lipids (% dose administered) ([1]; Liver, Phospholipids): 1.117 % dose
Total radioactivity in tissue lipids ([1]; Liver, Phospholipids): 1915
Radioactivity in tissue lipids (% dose administered) ([1]; Lung, Fatty Acids): 0.074 % dose
Total radioactivity in tissue lipids ([1]; Lung, Fatty Acids): 127
Radioactivity in tissue lipids (% dose administered) ([1]; Lung, Neutral Lipids): 0.276 % dose
Total radioactivity in tissue lipids ([1]; Lung, Neutral Lipids): 395
Radioactivity in tissue lipids (% dose administered) ([1]; Lung, Phospholipids): 0.926 % dose
Total radioactivity in tissue lipids ([1]; Lung, Phospholipids): 1587
Radioactivity in tissue lipids (% dose administered) ([1]; Skin, Fatty Acids): 0.007 % dose
Total radioactivity in tissue lipids ([1]; Skin, Fatty Acids): 12
Radioactivity in tissue lipids (% dose administered) ([1]; Skin, Neutral Lipids): 0.003 % dose
Total radioactivity in tissue lipids ([1]; Skin, Neutral Lipids): 4
Radioactivity in tissue lipids (% dose administered) ([1]; Skin, Phospholipids): 0.251 % dose
Total radioactivity in tissue lipids ([1]; Skin, Phospholipids): 430
Radioactivity in tissue lipids (% dose administered) ([1]; Spleen, Fatty Acids): 0.004 % dose
Total radioactivity in tissue lipids ([1]; Spleen, Fatty Acids): 7
Radioactivity in tissue lipids (% dose administered) ([1]; Spleen, Neutral Lipids): 0.004 % dose
Total radioactivity in tissue lipids ([1]; Spleen, Neutral Lipids): 7
Radioactivity in tissue lipids (% dose administered) ([1]; Spleen, Phospholipids): 0.055 % dose
Total radioactivity in tissue lipids ([1]; Spleen, Phospholipids): 95
Radioactivity in tissue lipids (% dose administered) ([1]; Testes, Fatty Acids): 0.013 % dose
Total radioactivity in tissue lipids ([1]; Testes, Fatty Acids): 23
Radioactivity in tissue lipids (% dose administered) ([1]; Testes, Neutral Lipids): 0.008 % dose
Total radioactivity in tissue lipids ([1]; Testes, Neutral Lipids): 11
Radioactivity in tissue lipids (% dose administered) ([1]; Testes, Phospholipids): 0.097 % dose
Total radioactivity in tissue lipids ([1]; Testes, Phospholipids): 167
excreted as exhaled CO2 [2]: 3–22%
excreted in urine [2]: 16–69%
tissue retention [2]: 21–44%
% Dose Recovered, CO2 [3]: 2.94 ± 0.230 % dose
% Dose Recovered, Feces [3]: 0.538 ± 0.335 % dose
% Dose Recovered, Tissues and GI Tract (includes contents) [3]: 34.1 ± 1.80 % dose
% Dose Recovered, Total Recovered [3]: 98.3 ± 3.50 % dose
% Dose Recovered, Urine [3]: 60.4 ± 3.80 % dose
% Dose Recovered, VOCs [3]: 0.220 ± 0.047 % dose
mean serum choline level [4]: ~23 ng/mL
